Values of other authors as cited in patent US5837685A (priority 1996, dated 1998).

Legend:
patients = settings: some impairment of renal function regardless of dosage

**Q.** For `C[C@@H]1[C@H](O)[C@@H](C)/C=C/C=C/C=C/C=C/C=C/C=C/C=C/[C@H](O[C@@H]2O[C@H](C)[C@@H](O)[C@H](N)[C@@H]2O)C[C@@H]2O[C@](O)(C[C@@H](O)C[C@@H](O)[C@H](O)CC[C@@H](O)C[C@@H](O)CC(=O)O[C@H]1C)C[C@H](O)[C@H]2C(=O)O` [Amphotericin B], which toxicity (patients) is on record?
**A.** Its toxicity is “highly toxic”.

**Q.** And the “active in vitro at concentrations of” value (Candida)?
**A.** The value was 0.01 to 2 µg/mL.
